# Results from US11613560B2, “Bicyclic peptide ligands specific for OX40” (BicycleTx Limited, priority 2019, dated 2023).
# Biological target: T1, OX40 (Homo sapiens, UniProt P43489)
# T1 construct: host or cells: OX40 Jurkat cells (NF-kB luciferase reporter)
# T1 sequence (P43489 29-277): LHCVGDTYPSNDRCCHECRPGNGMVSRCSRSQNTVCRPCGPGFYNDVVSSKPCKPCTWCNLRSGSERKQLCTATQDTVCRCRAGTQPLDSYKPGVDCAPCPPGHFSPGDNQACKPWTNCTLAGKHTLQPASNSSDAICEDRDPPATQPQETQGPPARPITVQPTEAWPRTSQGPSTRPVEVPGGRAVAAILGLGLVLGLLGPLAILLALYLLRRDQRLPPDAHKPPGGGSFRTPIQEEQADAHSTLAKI
# Assay: Promega OX40 cell-activity assay (NF-κB luciferase read-out in OX40 Jurkat cells)
# Assay type: cell-based
# Details: synthetic OX40 tetramer, FIG. 1
# Experimental: Promega have developed an OX40 cell-activity assay that uses NF-κB luciferase luminescence as a read-out of OX40 activation in Jurkat cells (Promega CS197704). On the day of the experiment, prepare medium by thawing FBS and adding 5% FBS to RPMI-1640. Thaw OX40 Jurkat cells in the water-bath and then add 500 μl cells to 11.5 ml pre-warmed 5 FBS RPMI-1640 medium. Add 60 μl cells/well to white cell culture plates. Proceed to dilute agonists at concentration giving the maximum fold induction and then titrate down the amount in a sterile 96 well-plate. […] Prepare enough reagent for duplicate samples and then perform ⅓ dilution series or 1/10 dilution series. Include positive control OX40L trimer (R&D systems #1054-OX-010) and negative control monomeric peptide. Add 20 μl of agonist as duplicate samples or 5% FBS RPMI-1640 alone as background control.
# Co-incubate cells together with agonists for 5 hours at 37° C., 5% CO2. After 5 hours, thaw Bio-Glo™ and develop the assay at room-temperature. Add 80 μl Bio-Glo™ per well and incubate 5-10 min. Read luciferase signal on CLARIOStar plate-reader using the MARS program and normalize the fold induction relative to background (medium alone). Analyse data by transforming the data to x=log (X), then plot log (agonist) vs. response variable slope (4 parameters) to calculate EC50 values.
smiles,measurement,value
CC(C)C[C@@H]1NC(=O)[C@@H](NC(=O)[C@H](C)N)CSCCC(=O)N2CN3CN(C2)C(=O)CCSC[C@H](NC(=O)[C@@H]2CCCN2C(=O)[C@H](CO)NC(=O)[C@H](Cc2ccc(O)cc2)NC1=O)C(=O)N[C@@H](Cc1c[nH]c2ccccc12)C(=O)N[C@@H](Cc1c[nH]cn1)C(=O)N1CCC[C@H]1C(=O)N[C@@H](CC(C)C)C(=O)N[C@@H](CC(N)=O)C(=O)N[C@@H](CC(=O)O)C(=O)N[C@H](C(=O)N[C@@H](C)C(=O)N[C@@H](CCCCNC(=O)CCc1cn(CCOCCOCCOCCOCCOCCOCCOCCOCCOCCOCCOCCOCCOCCOCCOCCOCCOCCOCCOCCOCCOCCOCCOCCNC(=O)CCOCC(COCCC(=O)NCCOCCOCCOCCOCCOCCOCCOCCOCCOCCOCCOCCOCCOCCOCCOCCOCCOCCOCCOCCOCCOCCOCCOCCn2cc(CCC(=O)NCCCC[C@H](NC(=O)[C@H](C)NC(=O)[C@@H]4CSCCC(=O)N5CN6CN(C5)C(=O)CCSC[C@H](NC(=O)[C@@H]5CCCN5C(=O)[C@H](CO)NC(=O)[C@H](Cc5ccc(O)cc5)NC(=O)[C@H](CC(C)C)NC(=O)[C@@H](NC(=O)[C@H](C)N)CSCCC6=O)C(=O)N[C@@H](Cc5c[nH]c6ccccc56)C(=O)N[C@@H](Cc5c[nH]cn5)C(=O)N5CCC[C@H]5C(=O)N[C@@H](CC(C)C)C(=O)N[C@@H](CC(N)=O)C(=O)N[C@@H](CC(=O)O)C(=O)N4)C(N)=O)nn2)(COCCC(=O)NCCOCCOCCOCCOCCOCCOCCOCCOCCOCCOCCOCCOCCOCCOCCOCCOCCOCCOCCOCCOCCOCCOCCOCCn2cc(CCC(=O)NCCCC[C@H](NC(=O)[C@H](C)NC(=O)[C@@H]4CSCCC(=O)N5CN6CN(C5)C(=O)CCSC[C@H](NC(=O)[C@@H]5CCCN5C(=O)[C@H](CO)NC(=O)[C@H](Cc5ccc(O)cc5)NC(=O)[C@H](CC(C)C)NC(=O)[C@@H](NC(=O)[C@H](C)N)CSCCC6=O)C(=O)N[C@@H](Cc5c[nH]c6ccccc56)C(=O)N[C@@H](Cc5c[nH]cn5)C(=O)N5CCC[C@H]5C(=O)N[C@@H](CC(C)C)C(=O)N[C@@H](CC(N)=O)C(=O)N[C@@H](CC(=O)O)C(=O)N4)C(N)=O)nn2)COCCC(=O)NCCOCCOCCOCCOCCOCCOCCOCCOCCOCCOCCOCCOCCOCCOCCOCCOCCOCCOCCOCCOCCOCCOCCOCCn2cc(CCC(=O)NCCCC[C@H](NC(=O)[C@H](C)NC(=O)[C@@H]4CSCCC(=O)N5CN6CN(C5)C(=O)CCSC[C@H](NC(=O)[C@@H]5CCCN5C(=O)[C@H](CO)NC(=O)[C@H](Cc5ccc(O)cc5)NC(=O)[C@H](CC(C)C)NC(=O)[C@@H](NC(=O)[C@H](C)N)CSCCC6=O)C(=O)N[C@@H](Cc5c[nH]c6ccccc56)C(=O)N[C@@H](Cc5c[nH]cn5)C(=O)N5CCC[C@H]5C(=O)N[C@@H](CC(C)C)C(=O)N[C@@H](CC(N)=O)C(=O)N[C@@H](CC(=O)O)C(=O)N4)C(N)=O)nn2)nn1)C(N)=O)CSCCC3=O [BCY12019],EC50 (range in words),low nanomolar range
